Test results published in patent publication US10646488B2 (Araxes Pharma LLC, priority 2016, dated 2020).
Also: test concentration or dose not given here.

The compounds below were run against T1, KRAS G12C 1-169, his-tagged protein, GDP-loaded (Homo sapiens, UniProt P01116, G12C) (assay: Covalent binding (% modification) to KRAS G12C by mass spectrometry). Details: covalent binding to KRAS G12C after a three minute incubation period.
T1 construct: KRAS G12C 1-169, his-tagged protein, GDP-loaded
In the case of `C=CC(=O)N1C[C@H](C)N(c2nc(OCCN3CCC(F)(F)C3)nc3c(F)c(-c4c(C)ccc5cn[nH]c45)c(Cl)cc23)C[C@H]1C` [Compound 202, 1-((2R,5S)-4-(6-chloro-2-(2-(3,3-difluoro-pyrrolidin-1-yl)ethoxy)-8-fluoro-7-(6-methyl-1H-indazol-7-yl)quinazolin-4-yl)-2,5-dimethyl-piperazin-1-yl) prop-2-en-1-one], the Binding % is reported as “+++ (+++ indicates binding activity greater than 90%)”. In the case of `C=CC(=O)N1C[C@H](C)N(c2nc(OCCN3CCC(F)(F)C3)nc3c(F)c(-c4c(O)cccc4F)c(Cl)cc23)C[C@H]1C` [Compound 203, 1-((2R,5S)-4-(6-chloro-2-(2-(3,3-difluoropyrrolidin-1-yl)ethoxy)-8-fluoro-7-(2-fluoro-6-hydroxyphenyl)quinazolin-4-yl)-2,5-dimethyl-piperazin-1-yl) prop-2-en-1-one], the Binding % is reported as “+++ (+++ indicates binding activity greater than 90%)”. For `C=CC(=O)N1C[C@H](C)N(c2nc(Oc3ccnn3C)nc3c(F)c(-c4c(C)ccc5[nH]ncc45)c(Cl)cc23)C[C@H]1C` [Compound 204, 1-((2R,5S)-4-(6-chloro-8-fluoro-7-(5-methyl-1H-indazol-4-yl)-2-((1-methyl-1H-pyrazol-5-yl)oxy)quinazolin-4-yl)-2,5-dimethyl-piperazin-1-yl) prop-2-en-1-one], the Binding % was “++ (++ indicates binding activity from 50 to 90%)”. For `C=CC(=O)N1C[C@H](C)N(c2nc(Oc3ccnn3C)nc3c(F)c(-c4cc(O)cc5ccccc45)c(Cl)cc23)C[C@H]1C` [Compound 205, 1-((2R,5S)-4-(6-chloro-8-fluoro-7-(3-hydroxy-naphthalen-1-yl)-2-((1-methyl-1H-pyrazol-5-yl)oxy)quinazolin-4-yl)-2,5-dimethyl-piperazin-1-yl) prop-2-en-1-one], the Binding % was “++ (++ indicates binding activity from 50 to 90%)”. In the case of `C=CC(=O)N1C[C@H](C)N(c2nc(N3CC(N(C)C)C3)nc3c(F)c(-c4c(O)cccc4F)c(C(F)(F)F)cc23)C[C@H]1C` [Compound 206, 1-((2R,5S)-4-(2-(3-(dimethylamino)azetidin-1-yl)-8-fluoro-7-(2-fluoro-6-hydroxyphenyl)-6-(trifluoromethyl)quinazolin-4-yl)-2,5-dimethyl-piperazin-1-yl) prop-2-en-1-one], the Binding % is reported as “+++ (+++ indicates binding activity greater than 90%)”. `C=CC(=O)N1C[C@H](C)N(c2nc(Oc3ccnn3C)nc3c(F)c(-c4c(O)cccc4F)c(Cl)cc23)C[C@H]1C` [Compound 208, 1-((2R,5S)-4-(6-chloro-8-fluoro-7-(2-fluoro-6-hydroxyphenyl)-2-((1-methyl-1H-pyrazol-5-yl)oxy)quinazolin-4-yl)-2,5-dimethyl-piperazin-1-yl) prop-2-en-1-one] was tested, and the Binding % was “+++ (+++ indicates binding activity greater than 90%)”. With `C=CC(=O)N1C[C@H](C)N(c2nc(OCCN3CCC(F)(F)C3)nc3c(F)c(-c4c(C)ccc5[nH]ncc45)c(Cl)cc23)C[C@H]1C` [Compound 209, 1-((2R,5S)-4-(6-chloro-2-(2-(3,3-difluoropyrrolidin-1-yl)ethoxy)-8-fluoro-7-(5-methyl-1H-indazol-4-yl)quinazolin-4-yl)-2,5-dimethyl-piperazin-1-yl) prop-2-en-1-one] the Binding % was “+++ (+++ indicates binding activity greater than 90%)”. With `C=CC(=O)N1C[C@H](C)N(c2nc(OCCCN(C)C)nc3c(F)c(-c4cc(O)cc5ccccc45)c(C(F)(F)F)cc23)C[C@H]1C` [Compound 210, 1-((2R,5S)-4-(2-(3-(dimethylamino)propoxy)-8-fluoro-7-(3-hydroxy-naphthalen-1-yl)-6-(trifluoromethyl)quinazolin-4-yl)-2,5-dimethyl-piperazin-1-yl) prop-2-en-1-one] the Binding % was “+++ (+++ indicates binding activity greater than 90%)”. `C=CC(=O)N1C[C@H](C)N(c2nc(N3CC(N(C)C)C3)nc3c(F)c(-c4c(O)ccc5ccccc45)c(Cl)cc23)C[C@H]1C` [Compound 211, 1-((2R,5S)-4-(6-chloro-2-(3-(dimethylamino)azetidin-1-yl)-8-fluoro-7-(2-hydroxynaphthalen-1-yl)quinazolin-4-yl)-2,5-dimethyl-piperazin-1-yl) prop-2-en-1-one] was tested, and the Binding % was “++ (++ indicates binding activity from 50 to 90%)”. For `C=CC(=O)N1C[C@H](C)N(c2nc(OCCN3CCC(F)(F)C3)nc3c(F)c(-c4c(O)ccc5ccccc45)c(Cl)cc23)C[C@H]1C` [Compound 213, 1-((2R,5S)-4-(6-chloro-2-(2-(3,3-difluoropyrrolidin-1-yl)ethoxy)-8-fluoro-7-(2-hydroxynaphthalen-1-yl)quinazolin-4-yl)-2,5-dimethyl-piperazin-1-yl) prop-2-en-1-one], the Binding % was “+ (+ indicates binding activity greater than 0% and up to 50%)”. `C=CC(=O)N1C[C@H](C)N(c2nc(N3CC(N(C)C)C3)nc3c(F)c(-c4c(F)cccc4OC(C)=O)c(Cl)cc23)C[C@H]1C` [Compound 214, 2-(4-((2S,5R)-4-acryloyl-2,5-dimethylpiperazin-1-yl)-6-chloro-2-(3-(dimethylamino)azetidin-1-yl)-8-fluoroquinazolin-7-yl)-3-fluoro-phenyl acetate] was tested, and the Binding % was “+ (+ indicates binding activity greater than 0% and up to 50%)”. In the case of `C=CC(=O)N1C[C@H](C)N(c2nc(OCCCN(C)C)nc3c(F)c(-c4c(C)ccc5[nH]ncc45)c(C(F)(F)F)cc23)C[C@H]1C` [Compound 215, 1-((2R,5S)-4-(2-(3-(dimethylamino)propoxy)-8-fluoro-7-(5-methyl-1H-indazol-4-yl)-6-(trifluoromethyl)quinazolin-4-yl)-2,5-dimethyl-piperazin-1-yl) prop-2-en-1-one], the Binding % is reported as “+++ (+++ indicates binding activity greater than 90%)”. For `C=CC(=O)N1C[C@H](C)N(c2nc(Oc3cnn(C)c3)nc3c(F)c(-c4cc(O)cc5ccccc45)c(Cl)cc23)C[C@H]1C` [Compound 216, 1-((2R,5S)-4-(6-chloro-8-fluoro-7-(3-hydroxy-naphthalen-1-yl)-2-(1-methyl-1H-pyrazol-4-yloxy)quinazolin-4-yl)-2,5-dimethyl-piperazin-1-yl) prop-2-en-1-one], the Binding % was “++ (++ indicates binding activity from 50 to 90%)”. In the case of `C=CC(=O)N1C[C@H](C)N(c2nc(Oc3cnn(C)c3)nc3c(F)c(-c4c(C)ccc5[nH]ncc45)c(Cl)cc23)C[C@H]1C` [Compound 217, 1-((2R,5S)-4-(6-chloro-8-fluoro-7-(5-methyl-1H-indazol-4-yl)-2-(1-methyl-1H-pyrazol-4-yloxy)quinazolin-4-yl)-2,5-dimethyl-piperazin-1-yl) prop-2-en-1-one], the Binding % is reported as “++ (++ indicates binding activity from 50 to 90%)”. For `C=CC(=O)N1C[C@H](C)N(c2nc(OCCCN(C)C)nc3c(F)c(-c4c(O)cccc4F)c(C(F)(F)F)cc23)C[C@H]1C` [Compound 218, 1-((2R,5S)-4-(2-(3-(dimethylamino)propoxy)-8-fluoro-7-(2-fluoro-6-hydroxyphenyl)-6-(trifluoromethyl)quinazolin-4-yl)-2,5-dimethyl-piperazin-1-yl) prop-2-en-1-one], the Binding % was “+++ (+++ indicates binding activity greater than 90%)”. `C=CC(=O)N1C[C@H](C)N(c2nc(OCCCN3CCC(F)(F)C3)nc3c(F)c(-c4cc(O)cc5ccccc45)c(Cl)cc23)C[C@H]1C` [Compound 221, 1-((2R,5S)-4-(6-chloro-2-(3-(3,3-difluoropyrrolidin-1-yl)propoxy)-8-fluoro-7-(3-hydroxynaphthalen-1-yl)quinazolin-4-yl)-2,5-dimethyl-piperazin-1-yl) prop-2-en-1-one] was tested, and the Binding % was “+ (+ indicates binding activity greater than 0% and up to 50%)”. With `C=CC(=O)N1C[C@H](C)N(c2nc(Oc3cn[nH]c3)nc3c(F)c(-c4c(O)cccc4F)c(Cl)cc23)C[C@H]1C` [Compound 222, 1-((2R,5S)-4-(2-(1H-pyrazol-4-yloxy)-6-chloro-8-fluoro-7-(2-fluoro-6-hydroxy-phenyl)quinazolin-4-yl)-2,5-dimethyl-piperazin-1-yl) prop-2-en-1-one] the Binding % was “++ (++ indicates binding activity from 50 to 90%)”. With `C=CC(=O)N1C[C@H](C)N(c2nc(Oc3cn[nH]c3)nc3c(F)c(-c4c(C)ccc5[nH]ncc45)c(Cl)cc23)C[C@H]1C` [Compound 223, 1-((2R,5S)-4-(2-(1H-pyrazol-4-yloxy)-6-chloro-8-fluoro-7-(5-methyl-1H-indazol-4-yl)quinazolin-4-yl)-2,5-dimethyl-piperazin-1-yl) prop-2-en-1-one] the Binding % was “++ (++ indicates binding activity from 50 to 90%)”. In the case of `C=CC(=O)N1C[C@H](C)N(c2nc(OCCCN(C)C)nc3c(F)c(-c4c(O)ccc5ccccc45)c(Cl)cc23)C[C@H]1C` [Compound 224, 1-((2R,5S)-4-(6-chloro-2-(3-(dimethylamino)propoxy)-8-fluoro-7-(2-hydroxy-naphthalen-1-yl)quinazolin-4-yl)-2,5-dimethyl-piperazin-1-yl) prop-2-en-1-one], the Binding % is reported as “++ (++ indicates binding activity from 50 to 90%)”. In the case of `C=CC(=O)N1C[C@H](C)N(c2nc(Oc3cnn(C)c3)nc3c(F)c(-c4c(O)cccc4F)c(Cl)cc23)C[C@H]1C` [Compound 225, 1-((2R,5S)-4-(6-chloro-8-fluoro-7-(2-fluoro-6-hydroxyphenyl)-2-(1-methyl-1H-pyrazol-4-yloxy)quinazolin-4-yl)-2,5-dimethyl-piperazin-1-yl) prop-2-en-1-one], the Binding % is reported as “++ (++ indicates binding activity from 50 to 90%)”. With `C=CC(=O)N1C[C@H](C)N(c2nc(OCCCN3CCC(F)(F)C3)nc3c(F)c(-c4c(O)cccc4F)c(Cl)cc23)C[C@H]1C` [Compound 230, 1-((2R,5S)-4-(6-chloro-2-(3-(3,3-difluoropyrrolidin-1-yl)propoxy)-8-fluoro-7-(2-fluoro-6-hydroxyphenyl)quinazolin-4-yl)-2,5-dimethyl-piperazin-1-yl) prop-2-en-1-one] the Binding % was “++ (++ indicates binding activity from 50 to 90%)”. With `C=CC(=O)N1C[C@H](C)N(c2nc(OCCCN3CCC(F)(F)C3)nc3c(F)c(-c4c(C)ccc5[nH]ncc45)c(Cl)cc23)C[C@H]1C` [Compound 231, 1-((2R,5S)-4-(6-chloro-2-(3-(3,3-difluoropyrrolidin-1-yl)propoxy)-8-fluoro-7-(5-methyl-1H-indazol-4-yl)quinazolin-4-yl)-2,5-dimethyl-piperazin-1-yl) prop-2-en-1-one] the Binding % was “++ (++ indicates binding activity from 50 to 90%)”.
